Measurements taken from patent US12577245B2, “Sulfonyl benzamide derivatives as Bcl-2 inhibitors” (ASCENTAGE PHARMA (SUZHOU) CO., LTD., priority 2021, dated 2026).

Molecular target: Bcl-2 G101V (Homo sapiens, UniProt P10415, G101V)
Assay: Bcl-2 G101V inhibition, fluorescence polarization (Flu-BIM tracer) binding assay
Conditions: FP; 20 nM Bcl2, 5 nM Flu-BIM, 1 h incubation; read-out: Bcl-2 G101V (FP)

SMILES	IC50 [nM]
CC1(C)CCC(CN2CCN(c3ccc(C(=O)NS(=O)(=O)c4ccc(NC[C@H]5CC[C@](C)(O)CC5)c([N+](=O)[O-])c4)c(Oc4cnc5[nH]ccc5c4)c3)CC2)=C(c2cc(-c3ccc(C(C)(C)O)cc3)cs2)C1 [Example 59, 2-((1H-pyrrolo[2,3-b]pyridin-5-yl)oxy)-N-((4-((((1r,4r)-4-hydroxy-4-methylcyclohexyl)methyl)amino)-3-nitrophenyl)sulfonyl)-4-(4-((2-(4-(4-(2-hydroxypropan-2-yl)phenyl)thiophen-2-yl)-4,4-dimethylcyclohex-1-en-1-yl)methyl)piperazin-1-yl)benzamide]	38.5
CC1(C)CCC(CN2CCN(c3ccc(C(=O)NS(=O)(=O)c4ccc(NC[C@H]5CC[C@](C)(O)CC5)c([N+](=O)[O-])c4)c(Oc4cnc5[nH]ccc5c4)c3)CC2)=C(c2cc(-c3ccc(C(O)(C(F)(F)F)C(F)(F)F)cc3)cs2)C1 [Example 60, 2-((1H-pyrrolo[2,3-b]pyridin-5-yl)oxy)-4-(4-((2-(4-(4-(1,1,1,3,3,3-hexafluoro-2-hydroxypropan-2-yl)phenyl)thiophen-2-yl)-4,4-dimethylcyclohex-1-en-1-yl)methyl)piperazin-1-yl)-N-((4-((((1r,4r)-4-hydroxy-4-methylcyclohexyl)methyl)amino)-3-nitrophenyl)sulfonyl)benzamide]	34.1
CC1(C)CCC(CN2CCN(c3ccc(C(=O)NS(=O)(=O)c4ccc(NC[C@H]5CC[C@](C)(O)CC5)c([N+](=O)[O-])c4)c(Oc4cnc5[nH]ccc5c4)c3)CC2)=C(c2cc(-c3ccc(C(C)(C)O)cc3F)cs2)C1 [Example 62, 2-((1H-pyrrolo[2,3-b]pyridin-5-yl)oxy)-4-(4-((2-(4-(2-fluoro-4-(2-hydroxypropan-2-yl)phenyl)thiophen-2-yl)-4,4-dimethylcyclohex-1-en-1-yl)methyl)piperazin-1-yl)-N-((4-((((1r,4r)-4-hydroxy-4-methylcyclohexyl)methyl)amino)-3-nitrophenyl)sulfonyl)benzamide]	23.7
CC1(C)CCC(CN2CCN(c3ccc(C(=O)NS(=O)(=O)c4ccc(NC[C@H]5CC[C@](C)(O)CC5)c([N+](=O)[O-])c4)c(Oc4cnc5[nH]ccc5c4)c3)CC2)=C(c2cc(-c3c(F)cc(C(C)(C)O)cc3F)cs2)C1 [Example 63, 2-((1H-pyrrolo[2,3-b]pyridin-5-yl)oxy)-4-(4-((2-(4-(2,6-difluoro-4-(2-hydroxypropan-2-yl)phenyl)thiophen-2-yl)-4,4-dimethylcyclohex-1-en-1-yl)methyl)piperazin-1-yl)-N-((4-((((1r,4r)-4-hydroxy-4-methylcyclohexyl)methyl)amino)-3-nitrophenyl)sulfonyl)benzamide]	32.3
CC1(C)CCC(CN2CCN(c3ccc(C(=O)NS(=O)(=O)c4ccc(NC[C@H]5COCCO5)c([N+](=O)[O-])c4)c(Oc4cnc5[nH]ccc5c4)c3)CC2)=C(c2cc(-c3c(F)cc(C(C)(C)O)cc3F)cs2)C1 [Example 64, (S)—N-((4-(((1,4-dioxan-2-yl)methyl)amino)-3-nitrophenyl)sulfonyl)-2-((1H-pyrrolo[2,3-b]pyridin-5-yl)oxy)-4-(4-((2-(4-(2,6-difluoro-4-(2-hydroxypropan-2-yl)phenyl)thiophen-2-yl)-4,4-dimethylcyclohex-1-en-1-yl)methyl)piperazin-1-yl)benzamide]	37
CCC(O)(CC)c1cc(F)c(-c2csc(C3=C(CN4CCN(c5ccc(C(=O)NS(=O)(=O)c6ccc(NC[C@H]7CC[C@](C)(O)CC7)c([N+](=O)[O-])c6)c(Oc6cnc7[nH]ccc7c6)c5)CC4)CCC(C)(C)C3)c2)c(F)c1 [Example 67, 2-((1H-pyrrolo[2,3-b]pyridin-5-yl)oxy)-4-(4-((2-(4-(2,6-difluoro-4-(3-hydroxypentan-3-yl)phenyl)thiophen-2-yl)-4,4-dimethylcyclohex-1-en-1-yl)methyl)piperazin-1-yl)-N-((4-((((1r,4r)-4-hydroxy-4-methylcyclohexyl)methyl)amino)-3-nitrophenyl)sulfonyl)benzamide]	33.7
[2H]C([2H])([2H])C(O)(c1cc(F)c(-c2csc(C3=C(CN4CCN(c5ccc(C(=O)NS(=O)(=O)c6ccc(NC[C@H]7CC[C@](C)(O)CC7)c([N+](=O)[O-])c6)c(Oc6cnc7[nH]ccc7c6)c5)CC4)CCC(C)(C)C3)c2)c(F)c1)C([2H])([2H])[2H] [Example 68, 2-((1H-pyrrolo[2,3-b]pyridin-5-yl)oxy)-4-(4-((2-(4-(2,6-difluoro-4-(2-hydroxypropan-2-yl-1,1,1,3,3,3-d6)phenyl)thiophen-2-yl)-4,4-dimethylcyclohex-1-en-1-yl)methyl)piperazin-1-yl)-N-((4-((((1r,4r)-4-hydroxy-4-methylcyclohexyl)methyl)amino)-3-nitrophenyl)sulfonyl)benzamide]	27.8
CC1(C)CCC(CN2CCN(c3ccc(C(=O)NS(=O)(=O)c4ccc(NC[C@H]5CC[C@](C)(O)CC5)c([N+](=O)[O-])c4)c(Oc4cnc5[nH]ccc5c4)c3)CC2)=C(c2cc(-c3c(F)cc(C(C)(O)C4CC4)cc3F)cs2)C1 (stereo partly drawn) [Example 69, 2-((1H-pyrrolo[2,3-b]pyridin-5-yl)oxy)-4-(4-((2-(4-(4-(1-cyclopropyl-1-hydroxyethyl)-2,6-difluorophenyl)thiophen-2-yl)-4,4-dimethylcyclohex-1-en-1-yl)methyl)piperazin-1-yl)-N-((4-((((1r,4r)-4-hydroxy-4-methylcyclohexyl)methyl)amino)-3-nitrophenyl)sulfonyl)benzamide]	29
CC1(C)CCC(CN2CCN(c3ccc(C(=O)NS(=O)(=O)c4ccc(NC[C@H]5CC[C@](C)(O)CC5)c([N+](=O)[O-])c4)c(Oc4cnc5[nH]ccc5c4)c3)CC2)=C(c2cc(-c3cccc(C(C)(C)O)c3)cs2)C1 [Example 70, 2-((1H-pyrrolo[2,3-b]pyridin-5-yl)oxy)-N-((4-((((1r,4r)-4-hydroxy-4-methylcyclohexyl)methyl)amino)-3-nitrophenyl)sulfonyl)-4-(4-((2-(4-(3-(2-hydroxypropan-2-yl)phenyl)thiophen-2-yl)-4,4-dimethylcyclohex-1-en-1-yl)methyl)piperazin-1-yl)benzamide]	36.9
CC1(C)CCC(CN2CCN(c3ccc(C(=O)NS(=O)(=O)c4ccc(NC[C@H]5CC[C@](C)(O)CC5)c([N+](=O)[O-])c4)c(Oc4cnc5[nH]ccc5c4)c3)CC2)=C(c2cc(-c3ccc(C(C)(C)O)c(F)c3)cs2)C1 [Example 71, 2-((1H-pyrrolo[2,3-b]pyridin-5-yl)oxy)-4-(4-((2-(4-(3-fluoro-4-(2-hydroxypropan-2-yl)phenyl)thiophen-2-yl)-4,4-dimethylcyclohex-1-en-1-yl)methyl)piperazin-1-yl)-N-((4-((((1r,4r)-4-hydroxy-4-methylcyclohexyl)methyl)amino)-3-nitrophenyl)sulfonyl)benzamide]	20.3
CC(CO)c1ccc(-c2csc(C3=C(CN4CCN(c5ccc(C(=O)NS(=O)(=O)c6ccc(NC[C@H]7CC[C@](C)(O)CC7)c([N+](=O)[O-])c6)c(Oc6cnc7[nH]ccc7c6)c5)CC4)CCC(C)(C)C3)c2)c(F)c1 (stereo partly drawn) [Example 72, 2-((1H-pyrrolo[2,3-b]pyridin-5-yl)oxy)-4-(4-((2-(4-(2-fluoro-4-(1-hydroxypropan-2-yl)phenyl)thiophen-2-yl)-4,4-dimethylcyclohex-1-en-1-yl)methyl)piperazin-1-yl)-N-((4-((((1r,4r)-4-hydroxy-4-methylcyclohexyl)methyl)amino)-3-nitrophenyl)sulfonyl)benzamide]	27
CC(C)(O)Cc1ccc(-c2csc(C3=C(CN4CCN(c5ccc(C(=O)NS(=O)(=O)c6ccc(NC[C@H]7CC[C@](C)(O)CC7)c([N+](=O)[O-])c6)c(Oc6cnc7[nH]ccc7c6)c5)CC4)CCC(C)(C)C3)c2)c(F)c1 [Example 73, 2-((1H-pyrrolo[2,3-b]pyridin-5-yl)oxy)-4-(4-((2-(4-(2-fluoro-4-(2-hydroxy-2-methylpropyl)phenyl)thiophen-2-yl)-4,4-dimethylcyclohex-1-en-1-yl)methyl)piperazin-1-yl)-N-((4-((((1r,4r)-4-hydroxy-4-methylcyclohexyl)methyl)amino)-3-nitrophenyl)sulfonyl)benzamide]	25.2
CC1(C)CCC(CN2CCN(c3ccc(C(=O)NS(=O)(=O)c4ccc(NC[C@H]5CC[C@](C)(O)CC5)c([N+](=O)[O-])c4)c(Oc4cnc5[nH]ccc5c4)c3)CC2)=C(c2cc(-c3c(F)cc(C(C)(C)CO)cc3F)cs2)C1 [Example 74, 2-((1H-pyrrolo[2,3-b]pyridin-5-yl)oxy)-4-(4-((2-(4-(2,6-difluoro-4-(1-hydroxy-2-methylpropan-2-yl)phenyl)thiophen-2-yl)-4,4-dimethylcyclohex-1-en-1-yl)methyl)piperazin-1-yl)-N-((4-((((1r,4r)-4-hydroxy-4-methylcyclohexyl)methyl)amino)-3-nitrophenyl)sulfonyl)benzamide]	30.2
CC1(C)CCC(CN2CCN(c3ccc(C(=O)NS(=O)(=O)c4ccc(NC[C@H]5CC[C@](C)(O)CC5)c([N+](=O)[O-])c4)c(Oc4cnc5[nH]ccc5c4)c3)CC2)=C(c2cc(-c3cc(C(C)(C)O)ccc3F)cs2)C1 [Example 75, 2-((1H-pyrrolo[2,3-b]pyridin-5-yl)oxy)-4-(4-((2-(4-(2-fluoro-5-(2-hydroxypropan-2-yl)phenyl)thiophen-2-yl)-4,4-dimethylcyclohex-1-en-1-yl)methyl)piperazin-1-yl)-N-((4-((((1r,4r)-4-hydroxy-4-methylcyclohexyl)methyl)amino)-3-nitrophenyl)sulfonyl)benzamide]	34.3
CC1(C)CCC(CN2CCN(c3ccc(C(=O)NS(=O)(=O)c4ccc(NC[C@H]5CC[C@](C)(O)CC5)c([N+](=O)[O-])c4)c(Oc4cnc5[nH]ccc5c4)c3)CC2)=C(c2cc(-c3ccc(C(C)(O)C(F)(F)F)cc3F)cs2)C1 (stereo partly drawn) [Example 78, 2-((1H-pyrrolo[2,3-b]pyridin-5-yl)oxy)-4-(4-((2-(4-(2-fluoro-4-(1,1,1-trifluoro-2-hydroxypropan-2-yl)phenyl)thiophen-2-yl)-4,4-dimethylcyclohex-1-en-1-yl)methyl)piperazin-1-yl)-N-((4-((((1r,4r)-4-hydroxy-4-methylcyclohexyl)methyl)amino)-3-nitrophenyl)sulfonyl)benzamide]	33.2
